Measured values: PubChem BioAssay AID210 (DTP/NCI, 2004)
Toxic doses and inconclusive results are not listed.

Tested on: CD2F1 mice, ip Colon 26 adenocarcinoma, median survival T/C
Test: NCI In Vivo Anticancer Drug Screen. Data for tumor model Colon 26 Adenocarcinoma (intraperitoneal) in CD2F1 (CDF1) mice
Settings: endpoint: median survival time, higher = longer survival
Protocol: The antitumor activity of compounds was measured in mice bearing transplantable tumors. Survival or tumor size were measured and the results are expressed as the measurement made in the treated group (T) divided by the measurement made in the vehicle treated control group (C). The tumor model used in this assay is Colon 26 Adenocarcinoma (intraperitoneal) in CD2F1 (CDF1) mice

NC(C/[N+]([O-])=N/O)C(=O)O (stereo not drawn)
T/C (dose: 8.78 mg/kg/injection, schedule: Q01DX010 (ip), vehicle: alkali diluted with saline): 99 % of control
T/C (dose: 13.2 mg/kg/injection, schedule: Q01DX010 (ip), vehicle: alkali diluted with saline): 100 % of control
T/C (dose: 19.8 mg/kg/injection, schedule: Q01DX010 (ip), vehicle: alkali diluted with saline): 96 % of control
T/C (dose: 29.6 mg/kg/injection, schedule: Q01DX010 (ip), vehicle: alkali diluted with saline): 113 % of control
T/C (dose: 44.4 mg/kg/injection, schedule: Q01DX010 (ip), vehicle: alkali diluted with saline): 104 % of control
T/C (dose: 66.7 mg/kg/injection, schedule: Q01DX010 (ip), vehicle: alkali diluted with saline): 95 % of control

O=C(O)c1ccc(C(=O)O)c(C(=O)O)c1.[NH-]C1CCCCC1[NH-].[Pt+2]
T/C (dose: 2.0 mg/kg/injection, schedule: Q01DX004 (ip), vehicle: sodium bicarbonate): 106 % of control
T/C (dose: 3.12 mg/kg/injection, schedule: Q04DX003 (ip), vehicle: sodium bicarbonate): 114 % of control
T/C (dose: 4.0 mg/kg/injection, schedule: Q01DX004 (ip), vehicle: sodium bicarbonate): 101 % of control
T/C (dose: 6.25 mg/kg/injection, schedule: Q04DX003 (ip), vehicle: sodium bicarbonate): 111 % of control
T/C (dose: 8.0 mg/kg/injection, schedule: Q01DX004 (ip), vehicle: sodium bicarbonate): 105 % of control
T/C (dose: 8.8 mg/kg/injection, schedule: Q01DX001 (ip), vehicle: saline): 150 % of control
T/C (dose: 8.8 mg/kg/injection, schedule: Q01DX001 (iv), vehicle: saline): 96 % of control
T/C (dose: 9.1 mg/kg/injection, schedule: Q04DX004 (iv), vehicle: sodium bicarbonate): 105 % of control
T/C (dose: 12.5 mg/kg/injection, schedule: Q04DX003 (ip), vehicle: sodium bicarbonate): 167 % of control
T/C (dose: 13.2 mg/kg/injection, schedule: Q01DX001 (iv), vehicle: saline): 87 % of control
T/C (dose: 13.5 mg/kg/injection, schedule: Q04DX004 (iv), vehicle: sodium bicarbonate): 104 % of control
T/C (dose: 19.8 mg/kg/injection, schedule: Q01DX001 (ip), vehicle: saline): 92 % of control
T/C (dose: 20.0 mg/kg/injection, schedule: Q04DX004 (iv), vehicle: sodium bicarbonate): 114 % of control
T/C (dose: 25.0 mg/kg/injection, schedule: Q04DX003 (ip), vehicle: sodium bicarbonate): 167 % of control
T/C (dose: 29.6 mg/kg/injection, schedule: Q01DX001 (ip), vehicle: saline): 96 % of control
T/C (dose: 35.0 mg/kg/injection, schedule: Q04DX002 (ip), vehicle: sodium bicarbonate): 103 % of control
T/C (dose: 44.4 mg/kg/injection, schedule: Q01DX001 (iv), vehicle: saline): 121 % of control
T/C (dose: 50.0 mg/kg/injection, schedule: Q04DX003 (ip), vehicle: sodium bicarbonate): 159 % of control
T/C (dose: 100.0 mg/kg/injection, schedule: Q04DX003 (ip), vehicle: sodium bicarbonate): 101 % of control

CCOC(=O)c1c[nH]c2oc(/C=N/N3CC(CN4CCOCC4)OC3=O)cc2c1=O (stereo not drawn)
T/C (dose: 12.5 mg/kg/injection, schedule: Q04DX003 (ip), vehicle: suspension in saline): 97 % of control
T/C (dose: 25.0 mg/kg/injection, schedule: Q04DX003 (ip), vehicle: suspension in saline): 90 % of control
T/C (dose: 50.0 mg/kg/injection, schedule: Q04DX003 (ip), vehicle: suspension in saline): 96 % of control
T/C (dose: 100.0 mg/kg/injection, schedule: Q04DX003 (ip), vehicle: suspension in saline): 90 % of control
T/C (dose: 200.0 mg/kg/injection, schedule: Q04DX003 (ip), vehicle: suspension in saline): 101 % of control
T/C (dose: 400.0 mg/kg/injection, schedule: Q04DX003 (ip), vehicle: suspension in saline): 101 % of control

CN(C)CCNc1cccc2c1C(=O)c1cccc(NCCN(C)C)c1C2=O
T/C (dose: 1.88 mg/kg/injection, schedule: Q01DX009 (ip), vehicle: saline): 103 % of control
T/C (dose: 3.75 mg/kg/injection, schedule: Q01DX009 (ip), vehicle: saline): 108 % of control
T/C (dose: 7.5 mg/kg/injection, schedule: Q01DX009 (ip), vehicle: saline): 99 % of control
T/C (dose: 15.0 mg/kg/injection, schedule: Q01DX009 (ip), vehicle: saline): 113 % of control

C1CN(P2(N3CC3)=NP(N3CC3)(N3CC3)=NP(N3CC3)(N3CC3)=N2)CCO1 (stereo not drawn)
T/C (dose: 6.25 mg/kg/injection, schedule: Q04DX003 (ip), vehicle: saline): 92 % of control
T/C (dose: 12.5 mg/kg/injection, schedule: Q04DX003 (ip), vehicle: saline): 121 % of control
T/C (dose: 50.0 mg/kg/injection, schedule: Q04DX003 (ip), vehicle: saline): 163 % of control
